From patent US8338465B2, “Cyclic carboxylic acid rhodanine derivatives for the treatment and prevention of tuberculosis” (priority 2006, dated 2012)

Target: T1, dihydrolipoamide acyltransferase (DlaT) (Mycobacterium tuberculosis, UniProt P9WIS7)
T1 sequence (P9WIS7 1-553): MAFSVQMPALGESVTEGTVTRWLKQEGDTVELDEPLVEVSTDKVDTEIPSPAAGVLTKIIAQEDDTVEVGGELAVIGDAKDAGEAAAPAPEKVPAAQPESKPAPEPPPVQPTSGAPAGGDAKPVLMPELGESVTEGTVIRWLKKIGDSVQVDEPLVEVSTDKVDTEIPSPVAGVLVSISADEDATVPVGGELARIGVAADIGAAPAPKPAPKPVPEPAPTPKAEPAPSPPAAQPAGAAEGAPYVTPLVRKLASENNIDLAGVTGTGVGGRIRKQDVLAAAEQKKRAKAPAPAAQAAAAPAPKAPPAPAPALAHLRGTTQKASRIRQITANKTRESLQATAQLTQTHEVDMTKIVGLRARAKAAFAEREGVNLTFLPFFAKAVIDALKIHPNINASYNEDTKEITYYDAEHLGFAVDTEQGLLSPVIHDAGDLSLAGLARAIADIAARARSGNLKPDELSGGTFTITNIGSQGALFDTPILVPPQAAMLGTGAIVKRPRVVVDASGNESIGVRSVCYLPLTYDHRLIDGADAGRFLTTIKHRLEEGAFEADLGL
Test: DlaT inhibition (Dlat IC50); DTNB peroxidase assay with Lpd, DlaT and AhpD
Type: biochemical
Settings: Dlat IC50 category

First: CSc1ccc(-c2ccc(C=C3SC(=S)N(C4CCC(C(=O)O)CC4)C3=O)o2)cc1 (stereo not shown) [Compound C65, 4-{5-[1-[5-(4-methylsulfanyl-phenyl)-furan-2-yl]-methylidene]-4-oxo-2-thioxo-thiazolidin-3-yl}-cyclohexanecarboxylic acid]
Second: CCCc1ccc(-c2ccc(C=C3SC(=S)N(C4CCC(C(=O)O)CC4)C3=O)o2)cc1 (stereo not shown) [Compound C80, 4-{5-[1-[5-(4-propyl-phenyl)-furan-2-yl]-methylidene]-4-oxo-2-thioxo-thiazolidin-3-yl}-cyclohexanecarboxylic acid]
The IC50 of the first is lower: less than 10 µM for the first, 11 to 40 µM for the second. The first is the more potent here.

CC(C)Oc1ccc(-c2ccc(C=C3SC(=S)N(C4CCCC(C(=O)O)C4)C3=O)o2)cc1 (stereo not shown) [Compound C66, 3-{5-[5-(4-Isopropoxy-phenyl)-furan-2-ylmethylene]-4-oxo-2-thioxo-thiazolidin-3-yl}-cyclohexanecarboxylic acid] and CC(C)Oc1ccc(-c2ccc(C=C3SC(=S)N(C4CCC(C(=O)O)CC4)C3=O)o2)cc1 (stereo not shown) [Compound C67, 4-{5-[5-(4-Isopropoxy-phenyl)-furan-2-ylmethylene]-4-oxo-2-thioxo-thiazolidin-3-yl}-cyclohexanecarboxylic acid] cannot be ordered by IC50: less than 10 µM for the first, less than 10 µM for the second.

First: Cc1ccc(-c2cccc(C=C3SC(=S)N(C4CCCC(C(=O)O)C4)C3=O)c2)cc1 (stereo not shown) [Compound C68, 3-{5-[1-(4′-methyl-biphenyl-3-yl)-methylidene]-4-oxo-2-thioxo-thiazolidin-3-yl}cyclohexanecarboxylic acid]
Second: Cc1ccc(-c2cccc(C=C3SC(=S)N(C4CCC(C(=O)O)CC4)C3=O)c2)cc1 (stereo not shown) [Compound C69, 4-{5-[1-(4′-methyl-biphenyl-3-yl)-methylidene]-4-oxo-2-thioxo-thiazolidin-3-yl}-cyclohexanecarboxylic acid]
The IC50 of the first is higher: 41 to 80 µM for the first, less than 10 µM for the second.

O=C(O)C1CCCC(N2C(=O)C(=Cc3ccc(-c4ccccc4-c4ccccc4)o3)SC2=S)C1 (stereo not shown) [Compound C70, 3-{5-[1-(5-biphenyl-2-yl-furan-2-yl)-methylidene]-4-oxo-2-thioxo-thiazolidin-3-yl}-cyclohexanecarboxylic acid] and O=C(O)C1CCC(N2C(=O)C(=Cc3ccc(-c4ccccc4-c4ccccc4)o3)SC2=S)CC1 (stereo not shown) [Compound C71, 4-{5-[1-(5-biphenyl-2-yl-furan-2-yl)-methylidene]-4-oxo-2-thioxo-thiazolidin-3-yl}-cyclohexanecarboxylic acid] cannot be ordered by IC50: less than 10 µM for the first, less than 10 µM for the second.

Cc1ccc(-c2ccc(C=C3SC(=S)N(C4CCCC(C(=O)O)C4)C3=O)cc2)cc1 (stereo not shown) [Compound C72, 3-{5-[1-(4′-methyl-biphenyl-4-yl)-methylidene]-4-oxo-2-thioxo-thiazolidin-3-yl}-cyclohexanecarboxylic acid] and Cc1ccc(-c2ccc(C=C3SC(=S)N(C4CCC(C(=O)O)CC4)C3=O)cc2)cc1 (stereo not shown) [Compound C73, 4-{5-[1-(4′-methyl-biphenyl-4-yl)-methylidene]-4-oxo-2-thioxo-thiazolidin-3-yl}-cyclohexanecarboxylic acid] cannot be ordered by IC50: less than 10 µM for the first, less than 10 µM for the second.

COc1ccc(C)cc1-c1ccc(C=C2SC(=S)N(C3CCCC(C(=O)O)C3)C2=O)o1 (stereo not shown) [Compound C74, 3-{5-[5-(2-Methoxy-5-methyl-phenyl)-furan-2-ylmethylene]-4-oxo-2-thioxo-thiazolidin-3-yl}-cyclohexanecarboxylic acid] and COc1ccc(C)cc1-c1ccc(C=C2SC(=S)N(C3CCC(C(=O)O)CC3)C2=O)o1 (stereo not shown) [Compound C75, 4-{5-[5-(2-Methoxy-5-methyl-phenyl)-furan-2-ylmethylene]-4-oxo-2-thioxo-thiazolidin-3-yl}-cyclohexanecarboxylic acid] fall in the same range of IC50: 11 to 40 µM for the first, 11 to 40 µM for the second.

CC(=O)Nc1ccc(-c2ccc(C=C3SC(=S)N(C4CCC(C(=O)O)CC4)C3=O)o2)cc1 (stereo not shown) [Compound C76, 4-{5-[1-[5-(4-acetylamino-phenyl)-furan-2-yl]-methylidene]-4-oxo-2-thioxo-thiazolidin-3-yl}-cyclohexanecarboxylic acid] and CNS(=O)(=O)c1ccc(-c2ccc(C=C3SC(=S)N(C4CCC(C(=O)O)CC4)C3=O)o2)cc1 (stereo not shown) [Compound C84, 4-{5-[5-(4-Methylsulfamoyl-phenyl)-furan-2-ylmethylene]-4-oxo-2-thioxo-thiazolidin-3-yl}-cyclohexanecarboxylic acid] cannot be ordered by IC50: less than 10 µM for the first, less than 10 µM for the second.

First: CCCCc1ccc(-c2ccc(C=C3SC(=S)N(C4CCCC(C(=O)O)C4)C3=O)o2)cc1 (stereo not shown) [Compound C77, 3-{5-[1-[5-(4-butyl-phenyl)-furan-2-yl]-methylidene]-4-oxo-2-thioxo-thiazolidin-3-yl}-cyclohexanecarboxylic acid]
Second: CCCc1ccc(-c2ccc(C=C3SC(=S)N(C4CCCC(C(=O)O)C4)C3=O)o2)cc1 (stereo not shown) [Compound C79, 3-{5-[1-[5-(4-propyl-phenyl)-furan-2-yl]-methylidene]-4-oxo-2-thioxo-thiazolidin-3-yl}-cyclohexanecarboxylic acid]
The IC50 of the first is lower: less than 10 µM for the first, 11 to 40 µM for the second.

First: CCCCc1ccc(-c2ccc(C=C3SC(=S)N(C4CCC(C(=O)O)CC4)C3=O)o2)cc1 (stereo not shown) [Compound C78, 4-{5-[1-[5-(4-butyl-phenyl)-furan-2-yl]-methylidene]-4-oxo-2-thioxo-thiazolidin-3-yl}-cyclohexanecarboxylic acid]
Second: CN(C)S(=O)(=O)c1ccc(-c2ccc(C=C3SC(=S)N(C4CCC(C(=O)O)CC4)C3=O)o2)cc1 (stereo not shown) [Compound C86, 4-{5-[5-(4-Dimethylsulfamoyl-phenyl)-furan-2-ylmethylene]-4-oxo-2-thioxo-thiazolidin-3-yl}-cyclohexanecarboxylic acid]
The IC50 of the first is lower: less than 10 µM for the first, 11 to 40 µM for the second. The first is the more potent here.

First: CNS(=O)(=O)c1ccc(-c2ccc(C=C3SC(=S)N(C4CCCC(C(=O)O)C4)C3=O)o2)cc1 (stereo not shown) [Compound C83, 3-{5-[5-(4-Methylsulfamoyl-phenyl)-furan-2-ylmethylene]-4-oxo-2-thioxo-thiazolidin-3-yl}-cyclohexanecarboxylic acid]
Second: CN(C)S(=O)(=O)c1ccc(-c2ccc(C=C3SC(=S)N(C4CCCC(C(=O)O)C4)C3=O)o2)cc1 (stereo not shown) [Compound C85, 3-{5-[5-(4-Dimethylsulfamoyl-phenyl)-furan-2-ylmethylene]-4-oxo-2-thioxo-thiazolidin-3-yl}-cyclohexanecarboxylic acid]
The IC50 of the first is lower: 11 to 40 µM for the first, 41 to 80 µM for the second.

O=C(O)c1ccccc1NN1C(=O)C(=Cc2ccc(-c3ccccc3Cl)o2)SC1=S [Compound D1, 2-{5-[1-[5-(2-chloro-phenyl)-furan-2-yl]-methylidene]-4-oxo-2-thioxo-thiazolidin-3-ylamino}-benzoic acid] and O=C(O)c1ccccc1NN1C(=O)C(=Cc2ccc(-c3ccccc3O)o2)SC1=S [Compound D12, 2-{5-[1-[5-(2-Hydroxy-phenyl)-furan-2-yl]-methylidene]-4-oxo-2-thioxo-thiazolidin-3-ylamino}-benzoic acid] cannot be ordered by IC50: less than 10 µM for the first, less than 10 µM for the second.

O=C(O)c1ccccc1NN1C(=O)C(=Cc2ccc(-c3cccc(C(F)(F)F)c3)o2)SC1=S [Compound D3, 2-{4-oxo-2-thioxo-5-[1-[5-(3-trifluoromethyl-phenyl)-furan-2-yl]-methylidene]-thiazolidin-3-ylamino}-benzoic acid] and O=C(O)c1ccccc1NN1C(=O)C(=Cc2ccc(-c3cccc([N+](=O)[O-])c3)o2)SC1=S [Compound D4, 2-{5-[1-[5-(3-nitro-phenyl)-furan-2-yl]-methylidene]-4-oxo-2-thioxo-thiazolidin-3-ylamino}-benzoic acid] cannot be ordered by IC50: less than 10 µM for the first, less than 10 µM for the second.

CC(C)(C)c1ccc(O)c(-c2ccc(C=C3SC(=S)N(Nc4ccccc4C(=O)O)C3=O)o2)c1 [Compound D5, 2-{5-[1-[5-(5-tert-butyl-2-hydroxy-phenyl)-furan-2-yl]-methylidene]-4-oxo-2-thioxo-thiazolidin-3-ylamino}-benzoic acid] and Cc1ccc(-c2ccc(C=C3SC(=S)N(Nc4ccccc4C(=O)O)C3=O)o2)c(C)c1 [Compound D8, 2-{5-[1-[5-(2,4-dimethyl-phenyl)-furan-2-yl]-methylidene]-4-oxo-2-thioxo-thiazolidin-3-ylamino}-benzoic acid] cannot be ordered by IC50: less than 10 µM for the first, less than 10 µM for the second.

O=C(O)c1ccccc1NN1C(=O)C(=Cc2ccc(-c3ccc(F)cc3F)o2)SC1=S [Compound D7, 2-{5-[1-[5-(2,4-difluoro-phenyl)-furan-2-yl]-methylidene]-4-oxo-2-thioxo-thiazolidin-3-ylamino}-benzoic acid] and Cc1cc(F)ccc1-c1ccc(C=C2SC(=S)N(Nc3ccccc3C(=O)O)C2=O)o1 [Compound D10, 2-{5-[1-[5-(4-fluoro-2-methyl-phenyl)-furan-2-yl]-methylidene]-4-oxo-2-thioxo-thiazolidin-3-ylamino}-benzoic acid] cannot be ordered by IC50: less than 10 µM for the first, less than 10 µM for the second.

COc1ccc(-c2ccc(C=C3SC(=S)N(Nc4ccccc4C(=O)O)C3=O)o2)c(C)c1 [Compound D9, 2-{5-[1-[5-(4-methoxy-2-methyl-phenyl)-furan-2-yl]-methylidene]-4-oxo-2-thioxo-thiazolidin-3-ylamino}-benzoic acid] and Cc1ccc(-c2ccc(C=C3SC(=S)N(Nc4ccccc4C(=O)O)C3=O)o2)c(F)c1 [Compound D11, 2-{5-[1-[5-(2-fluoro-4-methyl-phenyl)-furan-2-yl]-methylidene]-4-oxo-2-thioxo-thiazolidin-3-ylamino}-benzoic acid] cannot be ordered by IC50: less than 10 µM for the first, less than 10 µM for the second.

Cc1ccc(-c2ccc(C=C3SC(=S)N(Nc4ccccc4C(=O)O)C3=O)o2)cc1 [Compound D13, 2-{4-oxo-2-thioxo-5-[1-(5-p-tolyl-furan-2-yl)-methylidene]-thiazolidin-3-ylamino}-benzoic acid] was tested, and the IC50 was less than 10 µM.
